Target: T1, KDR tyrosine kinase (Homo sapiens, UniProt P35968)
T1 construct: a DNA fragment encoding most of the cytoplasmic domain, commencing with methionine 806 and including the termination codon; made in house; host or cells: Sf9 insect cells (recombinant baculovirus)
Test: In vitro enzyme assay (ELISA), Test (a), KDR
Format: biochemical
Conditions: ATP 8 μM, read-out: IC50 versus KDR tyrosine kinase
Procedure: The ability of test compounds to inhibit the phosphorylation of a tyrosine containing polypeptide substrate by the tyrosine kinase enzymes PDGFRα, PDGFRβ and KDR was assessed using conventional ELISA assays. DNA encoding the PDGFRα, PDGFRβ or KDR receptor cytoplasmic domains may be obtained by total gene synthesis (International Biotechnology Lab., 1987, 5(3), 19-25) or by cloning. The DNA fragments may be expressed in a suitable expression system to obtain polypeptide with tyrosine kinase activity. For example, PDGFRα, PDGFRβ and KDR receptor cytoplasmic domains, obtained by expression of recombinant protein in insect cells, can be shown to display intrinsic tyrosine kinase activity. In the case of the VEGF receptor KDR (Genbank Accession No. L04947), a DNA fragment encoding most of the cytoplasmic domain, commencing with methionine 806 and including the termination codon may be cloned into a baculovirus transplacement vector [for example pAcYM1 (see The Baculovirus Expression System: A Laboratory Guide, L. A. King and R. D. Possee, Chapman and Hall, 1992) or pAc360 or pBlueBacHis (available from Invitrogen Corporation)]. This recombinant construct may be co-transfected into insect cells [for example Spodoptera frugiperda 21(Sf21) or Spodoptera frugiperda 9(Sf9)] with viral DNA (for example Pharmingen BaculoGold) to prepare recombinant baculovirus. Details of the methods for the assembly of recombinant DNA molecules and the preparation and use of recombinant baculovirus can be found in standard texts, for example Sambrook et al., 1989, Molecular cloning—A Laboratory Manual, 2nd edition, Cold Spring Harbour Laboratory Press and O'Reilly et al., 1992, Baculovirus Expression Vectors—A Laboratory Manual, W. H. Freeman and Co, New York).
For expression, Sf9 cells were infected with plaque-pure KDR recombinant virus and harvested 48 hours later. […]

T1 sequence (P35968 786-1356 limits assumed): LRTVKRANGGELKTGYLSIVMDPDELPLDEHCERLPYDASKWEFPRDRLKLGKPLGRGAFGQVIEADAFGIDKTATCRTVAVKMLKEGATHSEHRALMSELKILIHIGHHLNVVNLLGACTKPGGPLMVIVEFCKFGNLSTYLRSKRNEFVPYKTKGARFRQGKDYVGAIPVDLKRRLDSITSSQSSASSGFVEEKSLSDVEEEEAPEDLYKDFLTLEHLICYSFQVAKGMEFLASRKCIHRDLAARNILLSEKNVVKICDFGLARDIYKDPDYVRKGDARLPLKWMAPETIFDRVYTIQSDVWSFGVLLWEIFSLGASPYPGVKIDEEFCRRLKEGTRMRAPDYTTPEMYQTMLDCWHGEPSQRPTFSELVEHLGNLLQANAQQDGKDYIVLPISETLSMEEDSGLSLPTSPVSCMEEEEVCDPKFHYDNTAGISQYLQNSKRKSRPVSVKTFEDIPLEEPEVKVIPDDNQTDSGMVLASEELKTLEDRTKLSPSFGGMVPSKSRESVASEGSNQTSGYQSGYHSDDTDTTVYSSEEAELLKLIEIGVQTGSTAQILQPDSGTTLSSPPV

## COc1cc2ncnc(Oc3cnn(CC(=O)Nc4cccc5c4OCO5)c3)c2cc1OC [Example 2, N-(2,3-methylenedioxyphenyl)-2-[4-(6,7-dimethoxyquinazolin-4-yloxy)pyrazol-1-yl]acetamide]
  IC50: ~1 nM

From patent US20090036474A1, “Quinazoline derivatives for use against cancer” (priority 2004, published 2009)
